Assays:
[1] = weighting of plasma concentration; cited from earlier work
[2] = Plasma concentrations of TAM, TOR and their metabolites by LC–MS/MS (screening study)
[3] = Hot flush grade (CTCAE v3.0) in the screening study; type: in vivo, breast cancer patients
From the text: We obtained data on compliance and the grade of hot flush as defined by the Common Terminology Criteria for Adverse Events v3.0.

[4] = patients on TAM 20 mg a day, N=182
[5] = 14 patients of the dose-escalation study

SMILES	In vitro activity factor in the total activity of TAM (TAM = 1.0) [1]	Plasma concentration, max [2, 4] [ng/mL]	Plasma concentration, mean [2, 4] [ng/mL]	Plasma concentration, median [2, 4] [ng/mL]	Plasma concentration, min [2, 4] [ng/mL]	In vitro activity factor in the total activity of TOR (TOR = 1.0) [1]	Plasma concentration, max ([2]; patients on TOR 40 mg, N=61) [ng/mL]	Plasma concentration, mean ([2]; patients on TOR 40 mg, N=61) [ng/mL]	Plasma concentration, median ([2]; patients on TOR 40 mg, N=61) [ng/mL]	Plasma concentration, min ([2]; patients on TOR 40 mg, N=61) [ng/mL]	Plasma concentration, max ([2]; patients on TOR 120 mg, N=27) [ng/mL]	Plasma concentration, mean ([2]; patients on TOR 120 mg, N=27) [ng/mL]	Plasma concentration, median ([2]; patients on TOR 120 mg, N=27) [ng/mL]	Plasma concentration, min ([2]; patients on TOR 120 mg, N=27) [ng/mL]	further results
CC/C(=C(\c1ccc(O)cc1)c1ccc(OCCN(C)C)cc1)c1ccccc1 [4OH-TAM]	116	9.5	3.6	3.3	0.2										
CN(C)CCOc1ccc(/C(=C(/CCCl)c2ccccc2)c2ccc(O)cc2)cc1 [4OH-TOR]						98.0	16.4	8.1	6.9	2.4	31.2	16.0	14.6	5.5	
CC/C(=C(\c1ccccc1)c1ccc(OCCNC)cc1)c1ccccc1 [NDM-TAM]	0.655	1090.0	283.2	271.0	59.2										
CC/C(=C(\c1ccccc1)c1ccc(OCCN(C)C)cc1)c1ccccc1 [TAM, tamoxifen]	1.0	552.0	174.7	163.0	38.5										Hot flush grade 0 on TAM 20 mg, % of patients [3, 5]: 57.1%; Hot flush grade 0 on TAM 20 mg, patients [3, 5]: 8; Hot flush grade 1 on TAM 20 mg, % of patients [3, 5]: 28.6%; Hot flush grade 1 on TAM 20 mg, patients [3, 5]: 4; Hot flush grade 2 on TAM 20 mg, % of patients [3, 5]: 14.3%; Hot flush grade 2 on TAM 20 mg, patients [3, 5]: 2; Hot flush grade 0, % of patients ([3]; TAM 20 mg, screening study): 56.8%; Hot flush grade 1, % of patients ([3]; TAM 20 mg, screening study): 31.4%; Hot flush grade 1, patients ([3]; TAM 20 mg, screening study): 58; Hot flush grade 2, % of patients ([3]; TAM 20 mg, screening study): 11.4%; Hot flush grade 2, patients ([3]; TAM 20 mg, screening study): 21; Hot flush grade 3, % of patients ([3]; TAM 20 mg, screening study): 0.5%; Hot flush grade 3, patients ([3]; TAM 20 mg, screening study): 1
CNCCOc1ccc(/C(=C(/CCCl)c2ccccc2)c2ccc(O)cc2)cc1 [4OH-NDM-TOR]						91.9	68.8	15.4	13.4	4.5	52.9	32.6	34.3	11.5	
CNCCOc1ccc(/C(=C(/CCCl)c2ccccc2)c2ccccc2)cc1 [NDM-TOR]						0.764	2820.0	1373.7	1350.0	601.0	5430.0	3594.4	3500.0	1380.0	
